Measured values published in paper PMC10688702, “The indole motif is essential for the antitrypanosomal activity of N^5-substituted paullones” (PLOS ONE, 2023).

Tests used:
Assay type in all cases: cell-based
[1] = tested on: bloodstream form of T. b. brucei strain 427; experiment: Viability assay for T. b. brucei (whole parasite, bioluminescence); conditions: 24 h; for T. b. brucei (BS) proliferation [% at 10 μM]: 10 μM compound; for EC50: Trypanosoma brucei, read-out: T. b. brucei (BS) [EC50
Method: Viability assay for T. b. brucei. The bloodstream form of the monomorphic T. b. brucei strain 427, cell line 5141313, constitutively and stably expressing an ectopic copy of the Photinus pyralis red-shifted luciferase, was cultured in vitro with HMI-9 medium, supplemented with 10% fetal bovine serum, 10 U/mL penicillin (Gibco), 10 μg/mL streptomycin (Gibco), 0.2 μg/mL bleomycin (Jena Bioscience), 4 μg/mL G418 disulfate salt (Sigma-Aldrich) and 0.2 μg/mL puromycin (Invitrogen), inside a humidified incubator (Thermo Fisher Scientific) with controlled temperature (37°C) and CO2 (5%) in a 25 or 75 cm^2 vented-cap culture-flask. The anti-trypanosomal activity of compounds was evaluated in a 96-well culture plate containing 2.2 μL/well DMSO (negative control) or compounds dissolved in DMSO (1% final concentration), and 220 μL/well of a suspension of 1 × 10^5 parasites/mL. The plates were incubated at 37°C and 5% CO2 for 24 h. Next, each well was transferred to a 96-well black plate, and 20 μL of a solution containing d-luciferin (1.5 mg/mL in PBS glucose 1% w/v) and Triton X-100 (0.05% v/v) was added. Bioluminescence signal was measured in a LUMIstar OPTIMA Microplate luminometer using the following settings: 10 s shaking, 5 s/well acquisition, 0.2 s measurement delay, maximum gain, and 37°C. For the bioluminescence assay, parasite viability was calculated according to the following formula: parasiteviability%=BLcpd-BLblank/BLneg-BLblank*100%
BL refers to the mean of bioluminescence signal corresponding to the tested compound (cpd), the blank (blank, complete media containing 1% v/v DMSO), or the negative control (neg, parasites treated with 1% v/v DMSO). EC50 values were determined from concentration-response curves fitted to a four-parameter sigmoid equation using the GraphPad Prism software (version 6.0). All errors are expressed as one SD, estimated as σ^n-1. For a detailed explanation of the protocol, see Dibello et al..

[2] = tested on: L. infantum amastigotes (intracellular, in J774.A1 macrophages); experiment: Viability assay for L. infantum amastigotes; conditions: Leishmania infantum, J774.A1, 24 h, read-out: L. infantum amastigote viability [% at 20 μM]
Summary of the method: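 Luciferase-expressing L. infantum metacyclic promastigotes (MHOM/MA/67/ITMAP263) infected J774.A1 murine macrophages at 1:10 for 24 h at 37 °C, 5% CO2. After compound treatment, a further 24 h incubation followed. Percent amastigote viability, in triplicate, was normalised to host-cell density by a propidium iodide correction factor.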

[3] = tested on: murine macrophages J774.A1; experiment: Cytotoxicity assays on murine macrophages (WST-1); conditions: error 1 SD
Method: Cytotoxicity assays on murine macrophages. Murine macrophages from the cell line J774.A1 (ATCC® TIB-67TM) were cultivated under a humidified 5% CO2/95% air atmosphere at 37°C in Dulbecco’s modified Eagle’s medium (DMEM) supplemented with 10% (v/v) FBS, 10 U/mL penicillin and 10 μg/mL streptomycin. The experimental protocol for the determination of EC50 values was identical as described by Demoro et al. 2012 [71], with the following change: 200 μL/well of a cell suspension at 6 × 10^4 cells per mL was added in a 96-well culture plate and washed with 150 μL of DMEM. The cytotoxicity of the compounds was evaluated in triplicate using the WST-1 reagent (Roche). The control treatment included cells cultured in the presence of DMSO 1% (v/v). Absorbance at 450 nm (Ai 450 nm), corresponding to the formazan dye produced by metabolically active cells, was measured with an EL 800-microplate reader. The corrected absorbance values at 450 nm (Ai c 450 nm) were obtained by subtracting the corresponding absorbance value at 630 nm (Ai 630 nm) and the blank average (Ablank 450 nm): Aic450nm=Ai450nm-Ai630nm-Ablank450nm
Cell viability (%), with the number of viable cells proportional to the absorbance, was calculated as follows: cellviability%=Aic450nm/Anegativecontrolc450nm*100%
Ai c 450 nm refers to an absorbance obtained from cells treated with compound I at a specific concentration (i) and Anegative control c 450 nm refers to an absorbance obtained from cells in the DMSO-treated control (negative control). The errors were calculated using error propagations and are expressed as one SD, estimated as σ^n−1.

CNCCNC(=O)CN1C(=O)Cc2c([nH]c3ccc(I)cc23)-c2ccc(Cl)cc21 [1f, 2-(3-Chloro-9-iodo-6-oxo-7,12-dihydrobenzo[2,3]azepino[4,5-b]indol-5(6H)-yl)-N-[2-(methylamino)ethyl]acetamide]
T. b. brucei (BS) proliferation [% at 10 μM] [1]: 0.0 ± 1.7%
EC50 [1]: 6.4 ± 1.7 µM
viability at 20 µM [2]: 72 ± 5%
Macrophage toxicity [% at stated conc.] ([3]; % cell death at 60 μM): 105.8 ± 0.2%

CNCCNC(=O)CN1C(=O)Cc2c([nH]c3ccc(C(F)(F)F)cc23)-c2ccc(Cl)cc21 [1h, 2-(3-Chloro-6-oxo-9-trifluoromethyl-7,12-dihydrobenzo[2,3]azepino[4,5-b]indol-5(6H)-yl)-N-[2-(methylamino)ethyl]acetamide]
T. b. brucei (BS) proliferation [% at 10 μM] [1]: 0.9 ± 1.3%
EC50 [1]: 6.6 ± 1.1 µM
viability at 20 µM [2]: 93 ± 10%
Macrophage toxicity [% at stated conc.] ([3]; % cell death at 60 μM): 102.8 ± 0.4%

CNCCNC(=O)CN1C(=O)Cc2c([nH]c3ccc(Cl)cc23)-c2ccc(Cl)cc21 [1g, 2-(3,9-Dichloro-6-oxo-7,12-dihydrobenzo[2,3]azepino[4,5-b]indol-5(6H)-yl)-N-[2-(methylamino)ethyl]acetamide]
T. b. brucei (BS) proliferation [% at 10 μM] [1]: 0.0 ± 0.3%
EC50 [1]: 4.7 ± 1.1 µM
viability at 20 µM [2]: 70 ± 2%
Macrophage toxicity [% at stated conc.] ([3]; % cell death at 50 μM): 101.9 ± 3.6%
